According to patent US8309718B2, “4-pyrazolyl-N-arylpyrimidin-2-amines and 4-pyrazolyl-N-heteroarylpyrimidin-2-amines as janus kinase inhibitors” (Incyte Corporation, priority 2007, dated 2012):

The compounds below were run against T1, human JAK2 (Homo sapiens, UniProt O60674) (assay: In vitro JAK kinase assay (HTRF, phosphorylation of biotinylated peptide)). Conditions: catalytic domain a.a. 828-1132, 30 μM ATP, 500 nM peptide, room temperature 1 hr; read-out: JAK-2 IC50.
T1 construct: JAK2 (a.a. 828-1132); His tag (N); made in house; host or cells: insect cells (baculovirus)
Type: biochemical
Protocol: Compounds herein were tested for inhibitory activity of JAK targets according to the following in vitro assay described in Park et al, Analytical Biochemistry 1999, 269, 94-104. The catalytic domains of human JAK1 (a.a. 837-1142), JAK2 (a.a. 828-1132) and JAK3 (a.a. 781-1124) with an N-terminal His tag were expressed using baculovirus in insect cells and purified. The catalytic activity of JAK1, JAK2 or JAK3 was assayed by measuring the phosphorylation of a biotinylated peptide. The phosphorylated peptide was detected by homogenous time resolved fluorescence (HTRF). IC50s of compounds were measured for each kinase in the reactions that contain the enzyme, ATP and 500 nM peptide in 50 mM Tris (pH 7.8) buffer with 100 mM NaCl, 5 mM DTT, and 0.1 mg/mL (0.01%) BSA. The ATP concentration in the reactions was 90 μM for JAK1, 30 μM for Jak2 and 3 μM for JAK3. Reactions were carried out at room temperature for 1 hr and then stopped with 20 μL 45 mM EDTA, 300 nM SA-APC, 6 nM Eu-Py20 in assay buffer (Perkin Elmer, Boston, Mass.). Binding to the Europium labeled antibody took place for 40 minutes and HTRF signal was measured on a Fusion plate reader (Perkin Elmer, Boston, Mass.). Certain of the above compounds were tested according to this assay.

T1 sequence (O60674 828-1132): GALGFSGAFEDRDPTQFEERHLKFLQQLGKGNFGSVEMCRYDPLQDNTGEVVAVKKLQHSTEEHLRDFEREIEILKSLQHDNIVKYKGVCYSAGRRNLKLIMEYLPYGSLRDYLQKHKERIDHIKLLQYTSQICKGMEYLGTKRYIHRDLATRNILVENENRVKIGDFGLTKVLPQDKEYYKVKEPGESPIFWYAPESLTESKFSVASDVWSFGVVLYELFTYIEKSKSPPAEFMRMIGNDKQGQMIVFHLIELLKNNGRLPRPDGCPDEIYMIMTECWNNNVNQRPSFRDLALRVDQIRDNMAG

IC50, < 100 nM:
COCC(C)NC(=O)c1ccc(Nc2ncc(C)c(-c3cnn(C(CC#N)C4CCCC4)c3)n2)cc1 (mixture of isomers) [Example 87, 4-(4-(1-(2-cyano-1-cyclopentylethyl)-1H-pyrazol-4-yl)-5-methylpyrimidin-2-ylamino)-N-(1-methoxypropan-2-yl)benzamide]
COCC(C)NC(=O)c1cccc(Nc2nccc(-c3cnn(C(CC#N)C4CCCC4)c3)n2)c1 (mixture of isomers) [Example 113, 3-(4-(1-(2-cyano-1-cyclopentylethyl)-1H-pyrazol-4-yl)pyrimidin-2-ylamino)-N-(1-methoxypropan-2-yl)benzamide]
N#CCC(C1CCCC1)n1cc(-c2ccnc(Nc3ccc(C(=O)N4CC[C@@H](O)C4)cc3)n2)cn1 (mixture of isomers) [Example 127, 3-cyclopentyl-3-(4-(2-(4-((R)-3-hydroxypyrrolidine-1-carbonyl)phenylamino)pyrimidin-4-yl)-1H-pyrazol-1-yl)propanenitrile]
N#CCC(C1CCCC1)n1cc(-c2ccnc(Nc3cccc(C(=O)N4CC[C@@H](O)C4)c3)n2)cn1 (mixture of isomers) [Example 141, 3-cyclopentyl-3-(4-(2-(3-((R)-3-hydroxypyrrolidine-1-carbonyl)phenylamino)pyrimidin-4-yl)-1H-pyrazol-1-yl)propanenitrile]
COc1cccc([C@@H](C)NC(=O)c2cccc(Nc3nccc(-c4cnn(C(CC#N)C5CCCC5)c4)n3)c2)c1 (mixture of isomers) [Example 145, 3-(4-(1-(2-cyano-1-cyclopentylethyl)-1H-pyrazol-4-yl)pyrimidin-2-ylamino)-N—((R)-1-(3-methoxyphenyl)ethyl)benzamide]
N#CCC(C1CCCC1)n1cc(-c2ccnc(Nc3cccc(C(=O)N4CCC(c5ccccn5)C4)c3)n2)cn1 (mixture of isomers) [Example 152, 3-cyclopentyl-3-(4-(2-(3-(3-(pyridin-2-yl)pyrrolidine-1-carbonyl)phenylamino)pyrimidin-4-yl)-1H-pyrazol-1-yl)propanenitrile]
CC(NC(=O)c1cccc(Nc2nccc(-c3cnn(C(CC#N)C4CCCC4)c3)n2)c1)c1ccccn1 (mixture of isomers) [Example 156, 3-(4-(1-(2-cyano-1-cyclopentylethyl)-1H-pyrazol-4-yl)pyrimidin-2-ylamino)-N-(1-(pyridin-2-yl)ethyl)benzamide]
N#CCC(C1CCCC1)n1cc(-c2ccnc(Nc3cccc(C(=O)N4CCC(c5cccc(F)c5)C4)c3)n2)cn1 (mixture of isomers) [Example 157, 3-cyclopentyl-3-(4-(2-(3-(3-(3-fluorophenyl)pyrrolidine-1-carbonyl)phenylamino)pyrimidin-4-yl)-1H-pyrazol-1-yl)propanenitrile]
CC(=O)N[C@@H]1CCN(C(=O)c2cccc(Nc3nccc(-c4cnn(C(CC#N)C5CCCC5)c4)n3)c2)C1 (mixture of isomers) [Example 158, N-((3R)-1-(3-(4-(1-(2-cyano-1-cyclopentylethyl)-1H-pyrazol-4-yl)pyrimidin-2-ylamino)benzoyl)pyrrolidin-3-yl)acetamide]
COC[C@H]1CCCN1C(=O)c1cccc(Nc2nccc(-c3cnn(C(CC#N)C4CCCC4)c3)n2)c1 (mixture of isomers) [Example 162, 3-cyclopentyl-3-(4-(2-(3-((R)-2-(methoxymethyl)pyrrolidine-1-carbonyl)phenylamino)pyrimidin-4-yl)-1H-pyrazol-1-yl)propanenitrile]
N#CCC(C1CCCC1)n1cc(-c2ccnc(Nc3cccc(C(=O)N[C@H]4CCN(Cc5ccccc5)C4)c3)n2)cn1 (mixture of isomers) [Example 167, N—((S)-1-benzylpyrrolidin-3-yl)-3-(4-(1-(2-cyano-1-cyclopentylethyl)-1H-pyrazol-4-yl)pyrimidin-2-ylamino)benzamide]
